In article PMC10343272, “Synthesis and Evaluation of ^99mTc-Labeled PSMA-Targeted Tracers Based on the Lys-Urea-Aad Pharmacophore for Detecting Prostate Cancer with Single Photon Emission Computed Tomography” (Molecules, 2023):
Like-named read-outs stand apart in the source and are kept apart here.

Experiments:
PSMA [1] = target: T1, PSMA (Homo sapiens, UniProt Q04609); details: previous observation; cited from earlier work
T1 construct: host or cells: LNCaP cells

PSMA [2] = target: T1, PSMA; experiment: In vitro competition binding assay ([^18F]DCFPyL displacement on LNCaP cells); details: inhibition of [^18F]DCFPyL binding to PSMA-expressing LNCaP cells, n = 3
Method: All tested PSMA-targeted ligands inhibited the binding of [^18F]DCFPyL to PSMA-expressing LNCaP cells in a concentration-dependent manner (Figure 2, n = 3).
The in vitro competition binding assays were performed following our previously published procedures. Briefly, LNCaP cells in RMPI medium with FBS, penicillin, and streptomycin were plated onto 24-well poly-D-lysine coated plates at 200,000 cells/well 48 h prior to binding assay. The growth medium was removed and the cells were rinsed with HEPES-buffered saline (50 mM HEPES, pH 7.5, 0.9% NaCl) two times before 400 µL of HEPES buffer were added to each well. Varying concentrations of PSMA-targeted ligands (50 µL) were added to each well in triplicate before adding 0.1 nmol/50 µL of [^18F]DCFPyL. After the additions, plates were incubated and swirled at 37 °C. After 1 h incubation, the solutions were removed, and cells were washed with HEPES-buffered saline twice. Finally, 400 µL of 0.25% trypsin solution were added to each well. After 10 min incubation, cells were collected for counting using a PerkinElmer (Waltham, MA, USA) Wizard2 2480 automatic gamma counter. The Ki values were analyzed with GraphPad (San Diego, CA, USA) Prism 7 software using nonlinear regression fit.

T1 sequence (Q04609 whole entry): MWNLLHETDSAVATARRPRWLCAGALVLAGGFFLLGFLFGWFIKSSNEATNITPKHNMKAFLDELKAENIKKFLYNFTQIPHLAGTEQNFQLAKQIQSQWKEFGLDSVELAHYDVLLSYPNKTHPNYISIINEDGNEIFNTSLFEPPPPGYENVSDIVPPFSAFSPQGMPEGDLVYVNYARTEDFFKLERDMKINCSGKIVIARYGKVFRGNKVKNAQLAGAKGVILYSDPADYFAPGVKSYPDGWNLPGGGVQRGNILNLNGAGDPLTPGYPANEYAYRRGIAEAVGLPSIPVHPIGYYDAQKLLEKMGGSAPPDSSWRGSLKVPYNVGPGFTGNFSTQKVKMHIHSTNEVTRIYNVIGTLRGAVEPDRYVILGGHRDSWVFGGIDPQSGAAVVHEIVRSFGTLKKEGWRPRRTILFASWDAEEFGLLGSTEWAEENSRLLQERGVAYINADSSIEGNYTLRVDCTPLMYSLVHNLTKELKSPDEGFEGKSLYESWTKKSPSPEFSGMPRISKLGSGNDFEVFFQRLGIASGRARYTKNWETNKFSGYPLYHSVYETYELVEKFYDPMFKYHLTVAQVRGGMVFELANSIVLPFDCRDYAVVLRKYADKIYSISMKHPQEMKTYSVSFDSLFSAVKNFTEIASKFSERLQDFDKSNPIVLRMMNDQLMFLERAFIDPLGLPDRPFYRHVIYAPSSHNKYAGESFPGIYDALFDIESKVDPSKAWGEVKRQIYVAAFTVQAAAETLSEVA

SMILES	Ki (PSMA [2])	Ki (PSMA [1])
O=C(O)CCC[C@H](NC(=O)N[C@@H](CCCCNC(=O)[C@H](Cc1c2ccccc2cc2ccccc12)NC(=O)[C@H]1CC[C@H](CNC(=O)CN2CCN(CC(=O)O)CCN(CC(=O)O)CCN(CC(=O)O)CC2)CC1)C(=O)O)C(=O)O [HTK03149]		6.99 nM
NNc1ccc(C(=O)N[C@@H](Cc2ccc3ccccc3c2)C(=O)NCCCC[C@H](NC(=O)N[C@@H](CCC(=O)O)C(=O)O)C(=O)O)cn1 [HYNIC-iPSMA, reference compound]	3.11 nM	
NNc1ccc(C(=O)N[C@@H](Cc2ccc3ccccc3c2)C(=O)NCCCC[C@H](NC(=O)N[C@@H](CCCC(=O)O)C(=O)O)C(=O)O)cn1 [KL01127]	8.96 ± 0.58 nM	

More lines, main results first:

Ki (PSMA [2])	SMILES	Ki (PSMA [1])
11.6 ± 1.5 nM	NNc1ccc(C(=O)NC[C@H]2CC[C@H](C(=O)N[C@@H](Cc3c4ccccc4cc4ccccc34)C(=O)NCCCC[C@H](NC(=O)N[C@@H](CCCC(=O)O)C(=O)O)C(=O)O)CC2)cn1 [HTK03180]	
10.7 nM	NNc1ccc(C(=O)NC[C@H]2CC[C@H](C(=O)N[C@@H](Cc3c4ccccc4cc4ccccc34)C(=O)NCCCC[C@H](NC(=O)N[C@@H](CCC(=O)O)C(=O)O)C(=O)O)CC2)cn1 [KL01099]	
